Measurements reported in US12377060B2, “Methods and compositions for preventing or treating tissue calcification” (Epizon Pharma, Inc., priority 2018, dated 2025).

Legend:
[1] = tested on: ESRD subjects on stable hemodialysis; assay: Example 1: contemplated administration of MK-7 and/or MKH2-7 to ESRD subjects on stable hemodialysis, biomarkers of tissue calcification; type: in vivo, human; conditions: 10 mg, 25 mg or 50 mg once daily orally
Method: This example describes the administration of MK-7 and/or MKH2-7 to a subject with ESRD and/or on stable hemodialysis. It is contemplated that administration of MK-7 and/or MKH2-7 will result in a change in aortic compliance (via plethysmography), vascular calcification and certain biomarker levels indicative of slowing the progression of, arresting, or reversing tissue calcification.
ESRD subjects on stable hemodialysis orally receive MK-7 and/or MKH2-7 at 10 mg, 25 mg or 50 mg once daily for least 2 weeks, 4 weeks, 6 weeks, 8 weeks, 3 months, 6 months, 1 year, or indefinitely. The dosage form is a 10 mg or 25 mg soft-gel capsule. Two 25 mg capsules are administered once daily to the 50 mg dosage cohort.
Coronary arterial calcium scores (CAC) are used to estimate the extent of calcification of thoracic arteries. A high CAC score is indicative of calcification, and treatment has the aim of arresting the long term increase in CAC score, or reversing it, or slowing the rate of increase. Aortic plethysmography also is used to measure arterial compliance, which decreases as calcification increases. Pulse wave velocity (PWV) also is measured to assess arterial compliance. The foregoing measures are useful in estimating the utility of treatments intended to prevent, slow the progression of, arrest or reverse vascular calcification. These measurements are used pre- and post-treatment with MK-7 and/or MKH2-7 to assess treatment value.
Further, several biomarkers are assessed to determine the efficacy of MK-7 and/or MKH2-7 at the three dose levels. Exemplary biomarkers include PIVKA-II; uncarboxylated and total Matrix Gla Protein (MGP); uncarboxylated, carboxylated and total osteocalcin protein; uncarboxylated, carboxylated and total Protein C, osteoprotegerin, Fetuin A, and hs-CRP. Blood samples are obtained to measure the biomarkers, most conveniently during patient visits for hemodialysis.
It is contemplated that administration of MK-7 and/or MKH2-7 can result in (i) an increase in […], osteoprotegerin, or Fetuin A, which is indicative of slowing the progression of, arresting or reversing tissue calcification, (ii) a decrease in uncarboxylated MGP, uncarboxylated osteocalcin, and/or uncarboxylated Protein C, which is indicative of slowing the progression of, arresting or reversing tissue calcification, and/or (iii) a decrease in hs-CRP, which is indicative of slowing the progression of, arresting or reversing tissue calcification and/or reduced inflammation.
It is contemplated that, following the daily administration of 10 mg, 25 mg or 50 mg MK-7 and/or MKH2-7, at least one of PIVKA-II, under-carboxylated Matrix Gla Protein (MGP), uncarboxylated osteocalcin protein, uncarboxylated Protein C, osteoprotegerin, Fetuin A, and hs-CRP will show a change indicative of slowing the progression of, arresting or reversing tissue calcification.

[2] = tested on: osteocalcin; conditions: 100-200 μg/d for 4 to 12 weeks; cited from earlier work

Structure (SMILES)	change in Fetuin A [1]	change in hs-CRP [1]	change in osteoprotegerin [1]	change in uncarboxylated MGP [1]	change in uncarboxylated Protein C [1]	change in uncarboxylated osteocalcin [1]	ratio of carboxylated to undercarboxylated osteocalcin [2]
CC(C)=CCC/C(C)=C/CC/C(C)=C/CC/C(C)=C/CC/C(C)=C/CC/C(C)=C/CC/C(C)=C/CC1=C(C)C(=O)c2ccccc2C1=O [MK-7, 2-[(2E,6E,10E,14E,18E,22E)-3,7,11,15,19,23,27-heptamethyloctacosa-2,6,10,14,18,22,26-heptaenyl]-3-methylnaphthalene-1,4-dione]	increase	decrease	increase	decrease	decrease	decrease	significantly and in a dose-dependent manner
CC(C)=CCC/C(C)=C/CC/C(C)=C/CC/C(C)=C/CC/C(C)=C/CC/C(C)=C/CC/C(C)=C/Cc1c(C)c(O)c2ccccc2c1O [MKH2-7, 2-[(2E,6E,10E,14E,18E,22E)-3,7,11,15,19,23,27-heptamethyloctacosa-2,6,10,14,18,22,26-heptaenyl]-3-methylnaphthalene-1,4-diol]	increase	decrease	increase	decrease	decrease	decrease	
